Laboratory results as given in patent US11001560B2, “Compound for blocking absorption of heavy metals by plants and a composition containing the same” (SICHUAN HUI TAI AGRICULTURAL TECHNOLOGY CO. LTD., priority 2018, dated 2021).

Experiments:
pepper = assay: Potted experiment: effect of compound of formula I on reducing heavy metal (Cd, Pb) content in vegetables; assay type: in vivo
Description: (§1) Potted experiments were carried out. The test soil was collected from the topsoil (0-20 cm) of farmland in the outskirts of Chengdu, Sichuan Province. The soil type was purple soil, with a total lead content of 1209.21 mg kg^−1 and a total cadmium content of 8.06 mg kg^−1. After the soil samples were collected, the plant residues were removed, air-dried, and passed through a 5 mm siever for later use. Test plants were bok choy and pepper. The sieved soil was filled into a tray, and 80 g of soil was filled in each tray. Before the planting, watering was carried out for 3 days to maintain the field water holding capacity of about 60%. Seeds of uniform size were selected. The surface of the seed was sterilized with ethanol: 30% H2O2 (V:V=1:1) for 3 minutes, and rinsed with sterile deionized water. The sterilized plant seeds were divided into two groups. One group was soaked in a deionized aqueous solution (5 g/L) of the compound of formula I for 4 hours, and was set as the experimental group. The other group was soaked in deionized water for the same time as the control group. The process was repeated 4 times. The seeds after soaking were sowed in a pot. After 1 week after emergence, 3 plants were left in each pot. The above soaking treatment was performed again, and the roots of the experimental group and the control group were soaked with 5 mL of an aqueous solution containing a compound of formula I and deionized water per pot, respectively. Watering the plant daily was necessary to ensure the necessary water for plant growth. Plants were harvested after 40 days of growth. The plants were removed from the pot and washed with deionized water. After harvesting, the plants were cut into roots and above ground parts along the junction of the rhizomes. The plants were put in an oven at 105° C. for 15 minutes, dried at 70° C., and weighed the dry weight of roots and above ground parts. The plant samples were grounded and digested by the nitric acid-perchloric acid method. The contents of heavy metals Pb and Cd in the plants were determined by atomic absorption spectrophotometer.

bok choy = assay: as above; assay type: in vivo
Description: as §1

[1] = experimental group (5 g/L compound of formula I) vs deionized water control
[2] = seeds soaked 4 hours in 5 g/L aqueous solution, roots soaked again with 5 mL per pot, Pb/Cd-contaminated soil, harvested after 40 days, atomic absorption

Q: `C/C=C/C(C[C@]1(O)CCNC[C@H](O)CCC2C=CCC(=O)C2C(=O)C/C=C/C=C/C[C@@H](O)C1)OC` (stereo partly shown) [compound of formula I] was tested. Which “Cd and Pb concentrations in the above ground parts and below ground parts of peppers, compared with the control group” value (pepper; [1]) did it give?
A: The value was “significantly reduce”.

Q: And the “Cd Concentration in Vegetables, Above Ground Parts, Pepper” value (pepper; [2])?
A: The value was 2.89 ± 0.39 mg/L.

Q: And the “Cd Concentration in Vegetables, Below Ground Parts, Pepper” value (pepper; [2])?
A: Its value is 4.58 ± 0.11 mg/L.

Q: What about the “Pb Concentration in Vegetables, Above Ground Parts, Pepper” value (pepper; [2]) of the same compound?
A: The value was 1.32 ± 0.08 mg/L.

Q: What about the “Pb Concentration in Vegetables, Below Ground Parts, Pepper” value (pepper; [2]) of the same compound?
A: The value was 5.11 ± 0.63 mg/L.

Q: And the “Cd and Pb concentrations in the above ground parts and below ground parts of bok choy, compared with the control group” value (bok choy; [1])?
A: The value was “significantly reduce”.

Q: What about the “Cd Concentration in Vegetables, Above Ground Parts, Bok Choy” value (bok choy; [2]) of the same compound?
A: Its value is 2.08 ± 0.19 mg/L.

Q: What about the “Cd Concentration in Vegetables, Below Ground Parts, Bok Choy” value (bok choy; [2]) of the same compound?
A: Its value is 2.01 ± 0.33 mg/L.

Q: And the “Pb Concentration in Vegetables, Above Ground Parts, Bok Choy” value (bok choy; [2])?
A: The value was 1.51 ± 0.06 mg/L.

Q: What about the “Pb Concentration in Vegetables, Below Ground Parts, Bok Choy” value (bok choy; [2]) of the same compound?
A: Its value is 6.71 ± 1.08 mg/L.
